Reference: patent EP4678638A1, “NEW E3 UBIQUITIN LIGASE LIGAND, PROTEIN DEGRADATION AGENT AND USE THEREOF” (priority 2023, dated 2024)
Like-named read-outs stand apart in the source and are kept apart here.

Key:
MV-4-11 = assay: CCK-8 proliferation, MV-4-11; type: cell-based, Human; conditions: Homo sapiens, MV4-11; CCK-8; 72 or 96 hours; read-out: Inhibitory activity (IC50) on tumor cell proliferation, MV-4-11
Procedure, shortened: (§1)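 CCK-8 viability readout; IC50 from growth-inhibition curve fitting. Cells plated, dosed 24h later with a 10-point series, top 10µM, 5-fold steps. Culture at 37°C, 5% CO2.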

Kasumi-1 = assay: CCK-8 proliferation, Kasumi-1; type: cell-based, Human; conditions: Homo sapiens, Kasumi 1, 72 hours, read-out: Inhibitory activity (IC50) on tumor cell proliferation, Kasumi-1
Method: The tumor cells used herein were cultured in a cell culture medium listed in table A1 at 37°C in an incubator with 5% CO2. Prior to experimentation, all cell lines used were correctly identified by STR profiling, and tested negative for mycoplasma contamination using a mycoplasma detection kit through routine screenings. Table A1. Tumor cells and cell culture medium used in the present disclosure
IC50 values of the compounds of the present disclosure (including the compounds in Table 1, and compounds of examples) were measured using the Meilun Cell Counting Kit-8 kit from Dalian Meilun Biotech Co., Ltd. Assay details are as follows: tumor cells were seeded in a 96-well plate at a density listed in Table A2. After 24h, 100 µL of the inoculated cells were treated with 0.5µL of the compounds of the present disclosure (including the compounds in Tables 1 and 2, and compounds of examples) at 10 different successively decreasing concentrations (starting at the highest concentration of 10µM; 5-fold serial dilutions). After the cells were treated with the compounds of the present disclosure for a period of time, the cell viability detection reagent was added to the culture medium for cell viability assessment according to the instructions provided with the CCK-8 kit. […] The growth inhibition of the compounds of the present disclosure on cells was plotted by Prism Graphpad software, and the IC50 values of the compounds of the present disclosure were calculated therefrom. […] Seeding protocol and treatment time for tumor cells

MCF7 = assay: CCK-8 proliferation, MCF7 (MCF-7); type: cell-based; conditions: Homo sapiens, MCF7
Procedure, shortened: as §1

MDA-MB-231 = assay: CCK-8 proliferation, MDA-MB-231; type: cell-based; conditions: Homo sapiens
Procedure, shortened: as §1

WEE1 = target: T1, WEE1 (Homo sapiens, UniProt P30291+Q96SW2); assay: Western blot degradation of WEE1 (hPBMC); type: cell-based; conditions: Table D16
T1 construct: evaluate the effects of the compounds of the present disclosure on the expression of target proteins in cells; endogenous in cells; host or cells: hPBMC
Procedure, shortened: (§2)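 Degradation is assessed by immunoblotting lysates of treated cells. Target bands are quantified by grayscale and normalised to an internal control, so degradation rate equals 100% minus % remaining.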

IKZF1 = target: T2, IKZF1 (Homo sapiens, UniProt Q13422+Q96SW2); assay: Western blot degradation of IKZF1 (hPBMC); type: cell-based; conditions: Table D16
T2 construct: evaluate the effects of the compounds of the present disclosure on the expression of target proteins in cells; endogenous in cells; host or cells: hPBMC
Procedure, shortened: as §2

IKZF2 = target: T3, IKZF2 (Homo sapiens, UniProt Q96SW2+Q9UKS7); assay: Western blot degradation of IKZF2 (hPBMC); type: cell-based; conditions: Table D16
T3 construct: evaluate the effects of the compounds of the present disclosure on the expression of target proteins in cells; endogenous in cells; host or cells: hPBMC
Procedure, shortened: as §2

IKZF3 = target: T4, IKZF3 (Homo sapiens, UniProt Q96SW2+Q9UKT9); assay: Western blot degradation of IKZF3 (hPBMC); type: cell-based; conditions: Table D16
T4 construct: evaluate the effects of the compounds of the present disclosure on the expression of target proteins in cells; endogenous in cells; host or cells: hPBMC
Procedure, shortened: as §2

CK1a = target: T5, CK1a (Homo sapiens, UniProt P48729+Q96SW2); assay: Western blot degradation of CK1a (hPBMC); type: cell-based; conditions: Table D16
T5 construct: evaluate the effects of the compounds of the present disclosure on the expression of target proteins in cells; endogenous in cells; host or cells: hPBMC
Procedure, shortened: as §2

GSPT1 = target: T6, GSPT1 (Homo sapiens, UniProt P15170+Q96SW2); assay: Western blot degradation of GSPT1 (hPBMC); type: cell-based; conditions: Table D16
T6 construct: evaluate the effects of the compounds of the present disclosure on the expression of target proteins in cells; endogenous in cells; host or cells: hPBMC
Procedure, shortened: as §2

H2228 = assay: CCK-8 proliferation, NCI-H2228 (H2228); type: cell-based; conditions: Homo sapiens, NCI-H2228; Table B6, compounds designed based on the ALK inhibitors; H2228 cells; read-out: Inhibitory activity (IC50, nM) on tumor cell proliferation, H2228
Procedure, shortened: as §1

H1975 = assay: CCK-8 proliferation, NCI-H1975 (H1975); type: cell-based, Human; conditions: Homo sapiens, NCI-H1975; Table B6, compounds designed based on the ALK inhibitors; H1975 cells; read-out: Inhibitory activity (IC50, nM) on tumor cell proliferation, H1975
Procedure, shortened: as §1

SR = assay: CCK-8 proliferation, SR; type: cell-based, Human; conditions: Homo sapiens; Table B6, compounds designed based on the ALK inhibitors; SR cells; read-out: Inhibitory activity (IC50, nM) on tumor cell proliferation, SR
Procedure, shortened: as §1

MM.1S = assay: CCK-8 proliferation, MM.1S; type: cell-based; conditions: Homo sapiens, MM1.S; Table B6, compounds designed based on the ALK inhibitors; MM.1S cells; read-out: Inhibitory activity (IC50, nM) on tumor cell proliferation, MM.1S
Procedure, shortened: as §1

ALK = target: T7, ALK (Homo sapiens, UniProt Q96SW2+Q9HC35+Q9UM73); assay: Western blot degradation of ALK (H2228 Cell); type: cell-based; conditions: Table D5
T7 construct: evaluate the effects of the compounds of the present disclosure on the expression of target proteins in cells; endogenous in cells; host or cells: H2228
Procedure, shortened: as §2

[1] = CCK-8, read-out: Inhibitory activity (IC50) on tumor cell proliferation, MCF-7
[2] = MDA-MB-231, CCK-8, 96 hours, read-out: Inhibitory activity (IC50) on tumor cell proliferation, MDA-MB-231
[3] = Table B6, compounds designed based on the ALK inhibitors, MCF-7 cells, read-out: Inhibitory activity (IC50, nM) on tumor cell proliferation, MCF-7
[4] = Table B6, compounds designed based on the ALK inhibitors, MDA-MB-231 cells, read-out: Inhibitory activity (IC50, nM) on tumor cell proliferation, MDA-MB-231

T5 sequence (P48729 whole entry): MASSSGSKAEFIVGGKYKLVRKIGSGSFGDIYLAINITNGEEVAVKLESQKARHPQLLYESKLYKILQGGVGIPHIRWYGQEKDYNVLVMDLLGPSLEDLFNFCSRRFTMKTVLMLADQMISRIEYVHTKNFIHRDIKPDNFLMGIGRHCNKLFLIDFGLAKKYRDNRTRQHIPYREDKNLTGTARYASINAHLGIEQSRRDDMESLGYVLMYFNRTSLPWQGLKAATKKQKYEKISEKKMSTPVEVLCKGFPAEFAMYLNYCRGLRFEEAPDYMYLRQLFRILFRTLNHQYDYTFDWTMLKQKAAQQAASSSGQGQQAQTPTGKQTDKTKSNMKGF
T5 sequence (Q96SW2 whole entry): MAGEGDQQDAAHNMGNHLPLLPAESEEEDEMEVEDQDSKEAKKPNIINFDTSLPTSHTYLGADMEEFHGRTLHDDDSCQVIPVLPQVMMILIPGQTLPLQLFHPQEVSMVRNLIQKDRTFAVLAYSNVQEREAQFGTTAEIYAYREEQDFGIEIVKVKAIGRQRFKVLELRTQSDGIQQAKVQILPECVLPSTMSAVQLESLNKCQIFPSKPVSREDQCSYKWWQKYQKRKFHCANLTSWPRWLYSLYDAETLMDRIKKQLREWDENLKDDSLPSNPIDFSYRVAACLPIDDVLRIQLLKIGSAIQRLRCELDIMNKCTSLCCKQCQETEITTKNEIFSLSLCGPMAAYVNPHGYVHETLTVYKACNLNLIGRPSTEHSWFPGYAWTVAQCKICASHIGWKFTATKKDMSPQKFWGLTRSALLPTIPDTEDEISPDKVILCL
T5 sequence (Q16531 whole entry partner): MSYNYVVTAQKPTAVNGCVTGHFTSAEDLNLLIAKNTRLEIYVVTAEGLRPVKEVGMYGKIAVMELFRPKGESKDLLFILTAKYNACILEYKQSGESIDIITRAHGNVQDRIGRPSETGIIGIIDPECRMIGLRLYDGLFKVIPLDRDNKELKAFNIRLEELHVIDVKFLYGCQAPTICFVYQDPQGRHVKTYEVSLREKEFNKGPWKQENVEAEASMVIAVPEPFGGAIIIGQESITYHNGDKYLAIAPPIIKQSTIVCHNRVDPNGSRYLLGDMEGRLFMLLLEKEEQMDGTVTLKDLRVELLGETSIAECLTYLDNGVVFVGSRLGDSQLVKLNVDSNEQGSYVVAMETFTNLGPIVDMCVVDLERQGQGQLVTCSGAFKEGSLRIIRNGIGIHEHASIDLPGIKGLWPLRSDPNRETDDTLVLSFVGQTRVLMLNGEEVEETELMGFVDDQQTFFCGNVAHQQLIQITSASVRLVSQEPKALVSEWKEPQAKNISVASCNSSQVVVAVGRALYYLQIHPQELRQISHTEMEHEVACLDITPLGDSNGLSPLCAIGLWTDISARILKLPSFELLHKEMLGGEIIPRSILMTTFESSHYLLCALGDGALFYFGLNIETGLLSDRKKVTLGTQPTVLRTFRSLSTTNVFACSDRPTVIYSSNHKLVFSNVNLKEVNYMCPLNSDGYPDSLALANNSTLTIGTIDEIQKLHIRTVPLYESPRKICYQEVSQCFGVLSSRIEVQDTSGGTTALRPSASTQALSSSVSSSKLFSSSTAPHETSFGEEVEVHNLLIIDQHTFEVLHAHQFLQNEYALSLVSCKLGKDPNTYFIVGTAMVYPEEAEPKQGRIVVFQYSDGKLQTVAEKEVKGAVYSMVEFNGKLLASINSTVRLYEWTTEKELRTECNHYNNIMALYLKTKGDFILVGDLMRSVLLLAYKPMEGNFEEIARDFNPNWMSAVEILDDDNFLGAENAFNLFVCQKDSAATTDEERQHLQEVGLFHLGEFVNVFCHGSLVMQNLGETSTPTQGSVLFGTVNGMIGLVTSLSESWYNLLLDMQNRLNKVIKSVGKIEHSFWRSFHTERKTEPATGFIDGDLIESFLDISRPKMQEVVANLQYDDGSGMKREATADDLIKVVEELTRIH
T4 sequence (Q9UKT9 whole entry): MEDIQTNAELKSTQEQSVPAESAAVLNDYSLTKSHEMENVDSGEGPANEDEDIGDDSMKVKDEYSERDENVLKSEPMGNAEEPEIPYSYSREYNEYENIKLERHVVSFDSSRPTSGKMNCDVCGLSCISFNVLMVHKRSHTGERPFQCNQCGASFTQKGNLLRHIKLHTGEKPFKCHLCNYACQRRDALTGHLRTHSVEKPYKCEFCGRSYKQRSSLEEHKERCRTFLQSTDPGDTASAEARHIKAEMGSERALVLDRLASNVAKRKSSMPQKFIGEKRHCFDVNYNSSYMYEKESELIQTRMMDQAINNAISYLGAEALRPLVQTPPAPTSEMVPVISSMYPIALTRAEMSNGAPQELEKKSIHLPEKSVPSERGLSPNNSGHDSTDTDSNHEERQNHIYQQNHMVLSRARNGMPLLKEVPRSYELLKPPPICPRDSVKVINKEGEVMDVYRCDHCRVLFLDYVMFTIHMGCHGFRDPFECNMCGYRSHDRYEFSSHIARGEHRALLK
T4 sequence (Q96SW2 whole entry): as the sequence (Q96SW2 whole entry) above
T4 sequence (Q16531 whole entry partner): as the sequence (Q16531 whole entry partner) above
T1 sequence (P30291 whole entry): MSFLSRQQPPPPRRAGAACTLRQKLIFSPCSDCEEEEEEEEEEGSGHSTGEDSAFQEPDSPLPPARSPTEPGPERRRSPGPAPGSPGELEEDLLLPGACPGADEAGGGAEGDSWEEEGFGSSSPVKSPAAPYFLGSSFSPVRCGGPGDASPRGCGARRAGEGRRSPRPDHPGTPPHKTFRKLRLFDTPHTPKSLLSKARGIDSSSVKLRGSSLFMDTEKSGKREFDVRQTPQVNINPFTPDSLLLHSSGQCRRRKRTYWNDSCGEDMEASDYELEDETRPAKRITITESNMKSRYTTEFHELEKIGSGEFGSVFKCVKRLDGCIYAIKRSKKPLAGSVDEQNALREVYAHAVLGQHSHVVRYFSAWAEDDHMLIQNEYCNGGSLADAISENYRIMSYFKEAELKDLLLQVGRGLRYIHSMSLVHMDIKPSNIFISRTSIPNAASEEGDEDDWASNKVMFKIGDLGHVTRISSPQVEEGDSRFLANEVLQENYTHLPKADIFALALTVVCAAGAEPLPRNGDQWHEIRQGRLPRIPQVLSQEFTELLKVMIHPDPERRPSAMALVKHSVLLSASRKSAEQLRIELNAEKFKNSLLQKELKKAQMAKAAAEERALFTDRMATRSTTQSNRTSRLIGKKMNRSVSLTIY
T1 sequence (Q96SW2 whole entry): as the sequence (Q96SW2 whole entry) above
T1 sequence (Q16531 whole entry partner): as the sequence (Q16531 whole entry partner) above
T2 sequence (Q13422 whole entry): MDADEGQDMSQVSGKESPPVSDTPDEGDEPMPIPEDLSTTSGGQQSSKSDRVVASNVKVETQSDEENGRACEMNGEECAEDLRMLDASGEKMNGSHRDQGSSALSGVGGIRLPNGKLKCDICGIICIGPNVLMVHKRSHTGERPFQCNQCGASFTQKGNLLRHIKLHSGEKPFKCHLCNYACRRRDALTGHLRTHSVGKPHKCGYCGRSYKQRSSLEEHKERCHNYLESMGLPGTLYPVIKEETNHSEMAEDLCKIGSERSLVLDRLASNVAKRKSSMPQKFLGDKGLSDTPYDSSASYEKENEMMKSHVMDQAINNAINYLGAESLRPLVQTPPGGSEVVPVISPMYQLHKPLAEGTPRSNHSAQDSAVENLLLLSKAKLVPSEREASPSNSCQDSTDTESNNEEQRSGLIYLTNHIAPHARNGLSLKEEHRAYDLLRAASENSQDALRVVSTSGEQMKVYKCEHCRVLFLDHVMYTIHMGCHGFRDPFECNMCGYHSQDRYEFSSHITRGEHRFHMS
T2 sequence (Q96SW2 whole entry): as the sequence (Q96SW2 whole entry) above
T2 sequence (Q16531 whole entry partner): as the sequence (Q16531 whole entry partner) above
T3 sequence (Q9UKS7 whole entry): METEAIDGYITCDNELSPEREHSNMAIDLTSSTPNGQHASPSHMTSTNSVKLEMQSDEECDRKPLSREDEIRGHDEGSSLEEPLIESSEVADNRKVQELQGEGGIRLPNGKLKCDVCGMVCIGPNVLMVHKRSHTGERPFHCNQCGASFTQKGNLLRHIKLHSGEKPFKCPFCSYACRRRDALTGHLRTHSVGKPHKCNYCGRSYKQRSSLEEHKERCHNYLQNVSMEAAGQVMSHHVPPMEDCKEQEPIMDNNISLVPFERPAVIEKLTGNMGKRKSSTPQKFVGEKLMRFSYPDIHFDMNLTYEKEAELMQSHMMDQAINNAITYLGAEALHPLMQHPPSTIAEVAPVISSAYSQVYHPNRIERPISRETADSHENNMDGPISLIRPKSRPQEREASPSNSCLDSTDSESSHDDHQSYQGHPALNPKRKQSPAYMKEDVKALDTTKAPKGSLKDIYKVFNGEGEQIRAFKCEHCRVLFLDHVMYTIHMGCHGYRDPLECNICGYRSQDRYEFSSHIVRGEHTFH
T3 sequence (Q96SW2 whole entry): as the sequence (Q96SW2 whole entry) above
T3 sequence (Q16531 whole entry partner): as the sequence (Q16531 whole entry partner) above

SMILES	IC50 (MV-4-11)	IC50 (MCF7; [1])	IC50 (MDA-MB-231; [2])	IC50 (Kasumi-1)	Degradation of substrate protein WEE1 (substrate protein remaining %) (WEE1)	Degradation of substrate protein IKZF1 (substrate protein remaining %) (IKZF1)	Degradation of substrate protein IKZF2 (substrate protein remaining %) (IKZF2)	Degradation of substrate protein IKZF3 (substrate protein remaining %) (IKZF3)	Degradation of substrate protein CKla (substrate protein remaining %) (CK1a)	Degradation of substrate protein GSPT1 (substrate protein remaining %) (GSPT1)	also measured
O=C1CCN(c2cc(CCl)ccn2)C(=O)N1 [GT-07078, 1-(4-(Chloromethyl)pyridin-2-yl)dihydropyrimidine-2,4(1H,3H)-dione]	–	1000 to 5000 nM	1000 to 5000 nM	–	B (B is defined as substrate protein remaining % > 80%)	B (B is defined as substrate protein remaining % > 80%)	B (B is defined as substrate protein remaining % > 80%)	B (B is defined as substrate protein remaining % > 80%)	B (B is defined as substrate protein remaining % > 80%)	A (A is defined as 0% ≤ substrate protein remaining % ≤ 80%)	–
O=C1CCN(c2cc(CCl)c(F)cn2)C(=O)N1 [GT-07199, 1-(4-(Chloromethyl)-5-fluoropyridin-2-yl)dihydropyrimidine-2,4(1H,3H)-dione]	–	1000 to 5000 nM	1000 to 5000 nM	–	B (B is defined as substrate protein remaining % > 80%)	B (B is defined as substrate protein remaining % > 80%)	A (A is defined as 0% ≤ substrate protein remaining % ≤ 80%)	A (A is defined as 0% ≤ substrate protein remaining % ≤ 80%)	A (A is defined as 0% ≤ substrate protein remaining % ≤ 80%)	A (A is defined as 0% ≤ substrate protein remaining % ≤ 80%)	–
COc1cc(N2CCC(N3CCN(Cc4ccnc(N5CCC(=O)NC5=O)c4)CC3)CC2)ccc1Nc1ncc(Cl)c(Nc2ccccc2P(C)(C)=O)n1 [GT-07609, 1-(4-((4-(1-(4-((5-chloro-4-((2-(dimethylphosphoryl)phenyl)amino)pyrimidin-2-yl)amino)-3-methoxyphenyl)piperidin-4-yl)piperazin-1-yl)methyl)pyridin-2-yl)dihydropyrimidine-2,4(1H,3H)-dione]	–	–	–	–	–	–	–	–	–	–	IC50 (H2228): 10 to 50 nM; IC50 (H1975): 100 to 500 nM; IC50 (MCF7; [3]): 100 to 500 nM; IC50 (SR): 1 to 10 nM; IC50 (MM.1S): 500 to 1000 nM; IC50 (MDA-MB-231; [4]): 500 to 1000 nM; Degradation of substrate protein ALK (substrate protein remaining %) (ALK): A (A is defined as 0% ≤ substrate protein remaining % ≤ 80%)
COc1cc(N2CCC(N(C)Cc3ccc(N4CCC(=O)NC4=O)cc3)CC2)ccc1Nc1ncc(Cl)c(Nc2ccccc2P(C)(C)=O)n1 [GT-07615, 1-(4-(((1-(4-((5-chloro-4-((2-(dimethylphosphoryl)phenyl)amino)pyrimidin-2-yl)amino)-3-methoxyphenyl)piperidin-4-yl)(methyl)amino)methyl)phenyl)dihydropyrimidine-2,4(1H,3H)-dione]	–	–	–	–	–	–	–	–	–	–	IC50 (H2228): 10 to 50 nM; IC50 (H1975): 100 to 500 nM; IC50 (MCF7; [3]): 100 to 500 nM; IC50 (SR): 1 to 10 nM; IC50 (MM.1S): 500 to 1000 nM; IC50 (MDA-MB-231; [4]): 100 to 500 nM; Degradation of substrate protein ALK (substrate protein remaining %) (ALK): A (A is defined as 0% ≤ substrate protein remaining % ≤ 80%)
O=C1CCN(c2cnc(F)c(CCl)c2)C(=O)N1 [GT-07633, 1-(5-(Chloromethyl)-6-fluoropyridin-3-yl)dihydropyrimidine-2,4(1H,3H)-dione]	–	1000 to 5000 nM	1000 to 5000 nM	–	A (A is defined as 0% ≤ substrate protein remaining % ≤ 80%)	B (B is defined as substrate protein remaining % > 80%)	A (A is defined as 0% ≤ substrate protein remaining % ≤ 80%)	B (B is defined as substrate protein remaining % > 80%)	A (A is defined as 0% ≤ substrate protein remaining % ≤ 80%)	B (B is defined as substrate protein remaining % > 80%)	–
O=C1CCN(c2cnc(CCl)cn2)C(=O)N1 [GT-07635, 1-(5-(Chloromethyl)pyrazin-2-yl)dihydropyrimidine-2,4(1H,3H)-dione]	–	–	1000 to 5000 nM	–	A (A is defined as 0% ≤ substrate protein remaining % ≤ 80%)	A (A is defined as 0% ≤ substrate protein remaining % ≤ 80%)	A (A is defined as 0% ≤ substrate protein remaining % ≤ 80%)	A (A is defined as 0% ≤ substrate protein remaining % ≤ 80%)	A (A is defined as 0% ≤ substrate protein remaining % ≤ 80%)	B (B is defined as substrate protein remaining % > 80%)	–

Further lines, with some results ahead:

IC50 (MV-4-11)	IC50 (MCF7; [1])	IC50 (MDA-MB-231; [2])	SMILES	IC50 (Kasumi-1)	Degradation of substrate protein WEE1 (substrate protein remaining %) (WEE1)	Degradation of substrate protein IKZF1 (substrate protein remaining %) (IKZF1)	Degradation of substrate protein IKZF2 (substrate protein remaining %) (IKZF2)	Degradation of substrate protein IKZF3 (substrate protein remaining %) (IKZF3)	Degradation of substrate protein CKla (substrate protein remaining %) (CK1a)	Degradation of substrate protein GSPT1 (substrate protein remaining %) (GSPT1)	also measured
100 to 500 nM	–	–	Cc1cc(S(=O)(=O)N2CCN(Cc3ccc(N4CCC(=O)NC4=O)cc3)CC2)ccc1Nc1ncc(Br)c(Nc2cccc(F)c2C(N)=O)n1 [GT-06831, 2-((5-bromo-2-((4-((4-(4-(2,4-dioxotetrahydropyrimidin-1(2H)-yl)benzyl)piperazin-1-yl)sulfonyl)-2-methylphenyl)amino)pyrimidin-4-yl)amino)-6-fluorobenzamide]	500 to 1000 nM	–	–	–	–	–	–	–
100 to 500 nM	–	–	Cc1cc(S(=O)(=O)N2CCN(Cc3cccc(N4CCC(=O)NC4=O)c3)CC2)ccc1Nc1ncc(Br)c(Nc2cccc(F)c2C(N)=O)n1 [GT-06832, 2-((5-bromo-2-((4-((4-(3-(2,4-dioxotetrahydropyrimidin-1(2H)-yl)benzyl)piperazin-1-yl)sulfonyl)-2-methylphenyl)amino)pyrimidin-4-yl)amino)-6-fluorobenzamide]	500 to 1000 nM	–	–	–	–	–	–	–
100 to 500 nM	–	–	Cc1ccsc1C(=O)n1nc(Nc2ccc(S(=O)(=O)N3CCN(Cc4cccc(NC5CCC(=O)NC5=O)c4)CC3)cc2)nc1N (stereo not drawn) [GT-06862, 3-((3-((4-((4-((5-amino-1-(3-methylthiophene-2-carbonyl)-1H-1,2,4-triazol-3-yl)amino)phenyl)sulfonyl)piperazin-1-yl)methyl)phenyl)amino)piperidine-2,6-dione]	100 to 500 nM	–	–	–	–	–	–	–
